# Assay results from patent US10294202B2, “Pyrrolidinones as herbicides” (FMC Corporation, priority 2013, dated 2019).
# Assays:
# [1] = tested on: barley, winter; assay: Test D pre-/postemergence herbicide test; format: in vivo, Hordeum vulgare; details: Postemergence, Barley, Winter, scale 0 to 100
# Procedure, shortened: (§1)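 Visual injury score, 0 (no effect) to 100 (complete control), taken 7–21 d post-treatment against untreated controls. Application was preemergence in silt loam and postemergence at 1- to 4-leaf stage, using a surfactant-containing non-phytotoxic solvent formulation.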
# [2] = tested on: barley, spring; assay: Test D pre-/postemergence herbicide test; format: in vivo, Hordeum vulgare; details: Postemergence, Barley, Spring, scale 0 to 100
# Procedure, shortened: as §1
# [3] = tested on: foxtail, green; assay: Test E preemergence herbicide test; format: in vivo, Setaria viridis; set-up: key: 0 = no effect, 100 = complete control
# Text: (§2) Seeds of plant species selected from corn (Zea mays), soybean (Glycine max), velvetleaf (Abutilon theophrasti), lambsquarters (Chenopodium album), wild poinsettia (Euphorbia heterophylla), pigweed, palmer (palmer pigweed, Amaranthus palmeri), waterhemp (common waterhemp, Amaranthus rudis), surinam grass (Brachiaria decumbens), crabgrass, large (large crabgrass, Digitaria sanguinalis), crabgrass, Brazil (Brazilian crabgrass, Digitaria horizontalis), panicum, fall (fall panicum, Panicum dichotomiflorum), foxtail, giant (giant foxtail, Setaria faberii), foxtail, green (green foxtail, Setaria viridis), goosegrass (Eleusine indica), johnsongrass (Sorghum halepense), ragweed (common ragweed, Ambrosia elatior), barnyardgrass (Echinochloa crus-galli), sandbur (southern sandbur, Cenchrus echinatus), arrowleaf […] rhombifolia), ryegrass, Italian (Italian ryegrass, Lolium multiflorum), dayflower, VA (Virginia dayflower, Commelina virginica), field bindweed (Convolvulus arvensis), morningglory (Ipomoea coccinea), nightshade (eastern black nightshade, Solanum ptycanthum), kochia (Kochia scoparia), nutsedge, yellow (yellow nutsedge, Cyperus esculentus), cocklebur (common cocklebur, Xanthium strumarium), smartweed (ladysthumb smartweed, Polygonum Persicaria) and beggarticks (hairy beggarticks, Bidens pilosa), were planted into a silt loam soil and treated preemergence with test chemicals formulated in a non-phytotoxic solvent mixture which included a surfactant. Treated plants and controls were maintained in a greenhouse for 21 days, after which time all species were compared to controls and visually evaluated. Plant response ratings, summarized in Table E, are based on a scale of 0 to 100 where 0 is no effect and 100 is complete control. A dash (-) response means no test result.
# [4] = tested on: soybean; assay: Test E preemergence herbicide test; format: in vivo, Glycine max; set-up: key: 0 = no effect, 100 = complete control
# Procedure, shortened: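 Seeds sown in silt loam soil received preemergence treatment with compound in a non-phytotoxic solvent mixture containing surfactant. After 21 days in the greenhouse, plants were visually rated against untreated controls on a 0 (no effect) to 100 (complete control) scale.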
# [5] = tested on: ragweed; assay: Test E preemergence herbicide test; format: in vivo, Ambrosia elatior; set-up: key: 0 = no effect, 100 = complete control
# Text: as §2
# [6] = tested on: cupgrass, woolly; assay: Test C pre-/postemergence herbicide test; format: in vivo, Eriochloa villosa
# Procedure, shortened: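 Visual rating, 0 (no effect) to 100 (complete control), versus untreated controls after 13 to 15 days in the greenhouse. Pre: seeds in loam/sand, sprayed at planting. Post: 1- to 4-leaf plants (2 to 18 cm) in peat-based mix. Compounds in non-phytotoxic solvent plus surfactant.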
smiles,measurement,setting,value
"O=C1NCC(c2ccc(F)c(F)c2)C1C(=O)Nc1cccc(F)c1F (stereo not drawn) [Compound 17, N-(2,3-difluorophenyl)-4-(3,4-difluorophenyl)-2-oxo-3-pyrrolidinecarboxamide]",Plant response rating,[1]; 16 g ai/ha,0
same,Plant response rating,[1]; 31 g ai/ha,0
same,Plant response rating,[1]; 62 g ai/ha,0
same,Plant response rating,[1]; 125 g ai/ha,0
same,Plant response rating,[1]; 250 g ai/ha,0
same,Plant response rating,[2]; 16 g ai/ha,0
same,Plant response rating,[2]; 31 g ai/ha,0
same,Plant response rating,[2]; 62 g ai/ha,0
same,Plant response rating,[2]; 125 g ai/ha,0
same,Plant response rating,[2]; 250 g ai/ha,0
same,"Plant response rating, Foxtail, Green",[3]; 16 g ai/ha,0
same,"Plant response rating, Foxtail, Green",[3]; 31 g ai/ha,25
same,"Plant response rating, Foxtail, Green",[3]; 62 g ai/ha,40
same,"Plant response rating, Foxtail, Green",[3]; 125 g ai/ha,70
same,"Plant response rating, Foxtail, Green",[3]; 250 g ai/ha,95
same,"Plant response rating, Soybean",[4]; 16 g ai/ha,0
same,"Plant response rating, Soybean",[4]; 31 g ai/ha,0
same,"Plant response rating, Soybean",[4]; 62 g ai/ha,0
same,"Plant response rating, Soybean",[4]; 125 g ai/ha,0
same,"Plant response rating, Soybean",[4]; 250 g ai/ha,0
same,"Plant response rating, Ragweed",[5]; 16 g ai/ha,0
same,"Plant response rating, Ragweed",[5]; 31 g ai/ha,0
same,"Plant response rating, Ragweed",[5]; 62 g ai/ha,0
same,"Plant response rating, Ragweed",[5]; 125 g ai/ha,0
same,"Plant response rating, Ragweed",[5]; 250 g ai/ha,0
same,"Plant response rating, Cupgrass, Woolly","[6]; Postemergence, 31 g ai/ha, scale 0 (no effect) to 100 (complete control)",0
same,"Plant response rating, Cupgrass, Woolly","[6]; Postemergence, 62 g ai/ha, scale 0 to 100 (0 no effect, 100 complete control)",0
same,"Plant response rating, Cupgrass, Woolly","[6]; Postemergence, 125 g ai/ha, scale 0 to 100 (0 no effect, 100 complete control)",0
same,"Plant response rating, Cupgrass, Woolly","[6]; Postemergence, 250 g ai/ha, scale 0 to 100 (0 no effect, 100 complete control)",0
same,"Plant response rating, Cupgrass, Woolly","[6]; Preemergence, 62 g ai/ha, scale 0 to 100",85
same,"Plant response rating, Cupgrass, Woolly","[6]; Preemergence, 125 g ai/ha, scale 0 to 100 (0 no effect, 100 complete control)",90
same,"Cupgrass, Woolly plant response rating","[6]; Preemergence, 31 g ai/ha, scale 0 to 100 (0 no effect, 100 complete control)",80
same,"Plant response rating, Cupgrass, Woolly","[6]; Preemergence, 250 g ai/ha, scale 0 to 100 (0 no effect, 100 complete control)",95
